Reference: PubChem BioAssay (NCI)
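1) Cells in 96-well plates. 2) Compound, 48 h, 5 concentrations. 3) Linear interpolation between surrounding doses. 4) Unreached endpoint = highest concentration. GI50 is the concentration that inhibits growth by half. Definition used: TGI = concentration required for complete inhibition of growth.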

Legend:
Experiment in all cases: inhibition of tumour cell growth, NCI panel, 48 h
[1] = test system: MCF7 breast
[2] = test system: SF-539 CNS
[3] = test system: KM12 colon
[4] = test system: OVCAR-5 ovarian
[5] = test system: ACHN renal
[6] = test system: SF-295 CNS
[7] = test system: NCI-H522 lung
[8] = test system: MDA-MB-231 breast
[9] = test system: HOP-62 NSCLC
[10] = test system: NCI-H460 lung

SMILES | GI50 [1] | TGI [1] | GI50 [2] | TGI [2] | GI50 [3] | TGI [3] | GI50 [4] | TGI [4] | GI50 [5] | TGI [5] | GI50 [6] | TGI [6] | GI50 [7] | TGI [7] | GI50 [8] | TGI [8] | GI50 [9] | TGI [9] | GI50 [10] | TGI [10]
CN(C)c1cccc2[nH]c(-c3[nH]ncc3Nc3ccnc(N)n3)nc12 | 0.0206 µM | 1.15 µM | < 0.0118 µM | 0.0608 µM | 0.024 µM | 0.283 µM | 0.023 µM | 1.9 µM | 0.0165 µM | 0.679 µM | 0.0172 µM | 0.0628 µM | 0.0221 µM | 0.166 µM | 0.0233 µM | 0.141 µM | 0.0273 µM | 0.629 µM | 0.054 µM | 1.05 µM
O=C(O)C(/C=C/c1ccco1)=N\Nc1nc(-c2ccc(Cl)cc2)cs1 | 10.2 µM | 40.6 µM | 14.6 µM | > 50 µM | 11.2 µM | > 50 µM | 46.4 µM | > 50 µM | 14.6 µM | > 50 µM | 0.842 µM | 4.23 µM | 7.61 µM | 41.3 µM | 14.7 µM | > 50 µM | 16.5 µM | > 50 µM | 8.36 µM | > 50 µM
COc1ccc(NC2=C(Sc3nc(C)cc(C)n3)C(=O)N(Cc3ccccc3)C2=O)cc1Cl | 56.8 µM | > 160 µM | > 160 µM | > 160 µM | > 160 µM | > 160 µM | > 160 µM | > 160 µM | > 160 µM | > 160 µM | 74.9 µM | > 160 µM | > 160 µM | > 160 µM | 127 µM | > 160 µM | 84.6 µM | > 160 µM | > 160 µM | > 160 µM
Cc1sc2ncnc(Sc3nc4ccccc4[nH]3)c2c1C | 13.6 µM | 67 µM | 38.4 µM | > 100 µM | 27.2 µM | > 100 µM | 39.7 µM | > 100 µM | 24.4 µM | > 100 µM | 55.8 µM | > 100 µM | 21.5 µM | 61.2 µM | 17.4 µM | 94.3 µM | 18.7 µM | 52 µM | 27.6 µM | > 100 µM
N#Cc1c(NC(=O)c2cccs2)[n+]([O-])c2ccccc2[n+]1[O-] | > 100 µM | > 100 µM | > 100 µM | > 100 µM | > 100 µM | > 100 µM | > 100 µM | > 100 µM | > 100 µM | > 100 µM | > 100 µM | > 100 µM | > 100 µM | > 100 µM | > 100 µM | > 100 µM | > 100 µM | > 100 µM | > 100 µM | > 100 µM
COC(=O)Nc1ccc2ccc3c(NC(=O)OC)ccc4ccc1c2c43 (tested in a mixture with another compound) | 27.1 µM | > 50 µM | 6.76 µM | 17.8 µM | 3.4 µM | > 50 µM | 13.9 µM | > 50 µM | 6.68 µM | 15 µM | 5.25 µM | 30.2 µM | 11 µM | > 50 µM | 7.95 µM | 35.7 µM | 7.91 µM | 25.4 µM | 4.79 µM | > 50 µM
CC1CCC2(OC1)OC1CC3C4CC=C5CC(OC6OC(CO)C(OC7OC(C)C(OC8OC(C)C(O)C(O)C8O)C(O)C7O)C(O)C6OC6OC(C)C(O)C(O)C6O)CCC5(C)C4CCC3(C)C1C2C (stereo not given) | – | 3.25 µM | – | 1.52 µM | – | 1.43 µM | – | 2.39 µM | – | 2.79 µM | – | 1.59 µM | – | 2.17 µM | – | 1.33 µM | – | > 100 µM | – | 3.25 µM
Nc1cc(N)c2nc(-c3ccccc3)c(Nc3ccc(F)cc3)nc2c1 | 12.5 µM | > 100 µM | 11 µM | 24.6 µM | 12 µM | 29.5 µM | 38.4 µM | > 100 µM | 10.3 µM | 22.5 µM | 14.4 µM | 32.4 µM | > 100 µM | > 100 µM | 11 µM | 30.5 µM | 37.8 µM | > 100 µM | 26.4 µM | > 100 µM
O=C(CNC(=O)c1cccc2ccccc12)Nc1ccccc1Oc1cccc(O)c1 | 4.51 µM | > 25 µM | 4.06 µM | 13.8 µM | 2.18 µM | > 25 µM | > 25 µM | > 25 µM | 17.4 µM | > 25 µM | 2.2 µM | > 25 µM | 1.62 µM | > 25 µM | 17.6 µM | > 25 µM | 8.22 µM | > 25 µM | 5.82 µM | > 25 µM
Nc1nc(-n2cccn2)nc(-n2cccn2)c1Br | > 100 µM | > 100 µM | > 100 µM | > 100 µM | > 100 µM | > 100 µM | > 100 µM | > 100 µM | > 100 µM | > 100 µM | > 100 µM | > 100 µM | > 100 µM | > 100 µM | > 100 µM | > 100 µM | > 100 µM | > 100 µM | > 100 µM | > 100 µM
c1ccc(-c2nc(Nc3ccc(-c4nc5ccccc5[nH]4)cc3)nc(N3CCOCC3)n2)cc1 | 0.877 µM | 2.85 µM | 1.42 µM | 2.94 µM | 1.62 µM | 3.19 µM | 2.16 µM | 4.02 µM | 1.25 µM | 2.74 µM | 1.25 µM | 2.84 µM | 2.1 µM | 3.92 µM | 1.29 µM | 3.48 µM | 1.73 µM | 3.52 µM | 0.822 µM | 2.46 µM
CCN(CC)c1ccc(/C=N/NC(=O)c2ccc(Nc3ccnc(C(F)(F)F)c3)cc2)c(O)c1 | 0.326 µM | > 100 µM | 0.234 µM | 0.87 µM | 0.316 µM | 4.1 µM | 0.38 µM | 4.75 µM | 0.142 µM | 2.56 µM | 0.122 µM | 0.927 µM | 0.293 µM | 2.07 µM | 0.396 µM | 3.97 µM | 0.187 µM | 1.07 µM | 0.212 µM | 1.48 µM
O=C1C(NCCO)=C(N2CC2)C(=O)C(NCCO)=C1N1CC1 | – | > 100 µM | – | 98 µM | – | > 100 µM | – | > 100 µM | – | > 100 µM | – | 64.6 µM | – | 70.6 µM | – | > 100 µM | – | 66.7 µM | – | > 66.2 µM
COc1n[n+]([O-])c(C)cc1[N+](=O)[O-] | 2.07 µM | 16.2 µM | 19.5 µM | 35.4 µM | 11.4 µM | 30.3 µM | 19.6 µM | 35.9 µM | 5.14 µM | 18.1 µM | 11.3 µM | 28.5 µM | 8.26 µM | 22.7 µM | 19.5 µM | 42.2 µM | 16.6 µM | 31.5 µM | 3.05 µM | 16.4 µM
Clc1nc(Cl)c2ncn(C/C=C\Cn3cnc4c(Cl)nc(Cl)nc43)c2n1 | 1.39 µM | 3.21 µM | 2.49 µM | 5.97 µM | 1.71 µM | 3.2 µM | 5.52 µM | 18.4 µM | 1.97 µM | 3.46 µM | 1.54 µM | 3.06 µM | 1.76 µM | 4.02 µM | 2.72 µM | 5.95 µM | 1.74 µM | 4.71 µM | 3.24 µM | 11.2 µM
N#Cc1nc(-c2cccc(Br)c2)cc(-c2ccc(Nc3nc(N4CCCCC4)nc(N4CCCCC4)n3)cc2)c1N | 1.03 µM | 54.4 µM | 1.74 µM | 3.14 µM | 1.91 µM | 3.91 µM | 2.06 µM | 4.7 µM | 1.72 µM | 3.3 µM | 2.72 µM | 8.81 µM | 1.78 µM | 4.72 µM | 1.56 µM | 3.21 µM | 2.64 µM | 8.76 µM | 1.85 µM | 3.8 µM
C[C@]12CC[C@H]3[C@@H](CC=C4C[C@@H](O)CC[C@@]43C)[C@@H]1C/C(=C\c1cccc(OCCN3CCOCC3)c1)[C@@H]2O | > 100 µM | > 100 µM | > 100 µM | > 100 µM | > 100 µM | > 100 µM | > 100 µM | > 100 µM | > 100 µM | > 100 µM | 89.4 µM | > 100 µM | > 100 µM | > 100 µM | 87.6 µM | > 100 µM | > 100 µM | > 100 µM | > 100 µM | > 100 µM
COc1ccc(C2=NNC(c3ccc(-c4ccc(OC)cc4[N+](=O)[O-])o3)C2)cc1 (stereo not given) | 20 µM | > 100 µM | 10.1 µM | 23.1 µM | 27.4 µM | > 100 µM | > 100 µM | > 100 µM | 42.2 µM | > 100 µM | 29.5 µM | > 100 µM | 34.9 µM | > 100 µM | 1.89 µM | 43.6 µM | 30.6 µM | > 100 µM | 46.8 µM | > 100 µM
C=C1C(=O)O[C@H]2[C@H]1CC/C(COC(=O)NCCc1ccc(OC)cc1)=C\CC[C@@]1(C)O[C@@H]21 | 1.89 µM | 4.79 µM | 1.79 µM | 4.21 µM | 8.36 µM | 24.4 µM | 2.65 µM | 8.27 µM | 1.72 µM | 3.55 µM | 13.5 µM | 27.4 µM | 1.82 µM | 3.93 µM | 2.02 µM | 5.17 µM | 12.2 µM | 27.1 µM | 12.2 µM | 35.2 µM
